For data set [1], the system named is TTR. Briefly: TTR editing in primary human hepatocytes transfected with Spy Cas9 mRNA and dgRNAs (Table 9). In kind it is cell-based. The settings on record: dgRNA co-transfected with Spy Cas9 mRNA (SEQ ID NO:2). Put shortly:
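PHH sequentially lipofected with Spy Cas9 mRNA (100 ng), then crRNA plus tracrRNA (25 nM each) dual-guide lipoplex. Cells harvested 24, 48 or 72 h post-transfection; TTR target amplicons sequenced on Illumina MiSeq, editing given as percent reads with indels or substitutions over total reads.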

In data set [2] the test system is TTR. Briefly: TTR editing in primary human hepatocytes electroporated with Spy Cas9 protein loaded with dgRNAs (Table 7). In kind it is cell-based. The settings on record: dgRNA electroporated with Spy Cas9 protein (RNP). Put shortly:
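Primary human or cynomolgus hepatocytes electroporated (Lonza P3 buffer, program EX-147) with Spy Cas9 RNP carrying pre-annealed crRNA/trRNA dual guides. Genomic DNA harvested at 24, 48 or 72 h; target amplicons sequenced by Illumina MiSeq. Percent editing = reads with indels or substitutions over total reads.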

Data set [3] concerns off-target genomic sites. Briefly: Off-target oligo insertion based assay in HEK293_Cas9 cells, dgRNAs and sgRNAs (Tables 23, 24). The format is cell-based, human. Particulars: Table 23; TTR dgRNAs in HekCas9 cells, oligo insertion based assay. Put shortly: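 In HEK293 cells constitutively expressing Spy Cas9, crRNA (15 nM) plus trRNA (15 nM), or modified sgRNAs, were lipofected with donor oligo (10 nM). Genomic DNA was collected at 24 h, and oligo-insertion libraries were sequenced on MiSeq/HiSeq to map potential off-target cleavage sites.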

Consider “UGGACUGGUAUUUGUGUCUG (tested as dual guide RNA, chemistry not given here) [CR003340]”, for which, in data set [1], the “Avg % Deletion” value turned out to be 23.17%, the “Avg % Edit” value stood at 24.97% and the “Avg % Insert” value was 1.83%. Moreover, in data set [2], the “Avg % Deletion” value was determined as 6.50%, the “Avg % Edit” value is given as 12.03% and the “Avg % Insert” value amounted to 5.60%. The “# Sites (off-target integration sites detected)” value (from here on “# Sites”) in data set [3] turned out to be 0.

Turning to “CUCUGCAUGCUCAUGGAAUG (tested as dual guide RNA, chemistry not given here) [CR003369]”, in data set [1], the “Avg % Deletion” value came out at 0.70%, the “Avg % Edit” value is 1.60% and the “Avg % Insert” value is reported as 0.90%. In data set [2], the “Avg % Deletion” value was 0.40%, the “Avg % Edit” value was found to be 3.67% and the “Avg % Insert” value came out at 3.30%. In addition, the “# Sites” value in data set [3] is given as 2.

For the sequence “AGACACCAAAUCUUACUGGA (tested as dual guide RNA, chemistry not given here) [CR003367]”, in data set [1], the “Avg % Deletion” value was 23.37%, the “Avg % Edit” value was 37.33% and the “Avg % Insert” value was 14.03%. Besides, in data set [2], the “Avg % Deletion” value is 16.37%, the “Avg % Edit” value came to 39.20% and the “Avg % Insert” value was 22.93%. In data set [3], the “# Sites” value is recorded as 1.

For the sequence “AAAGGCUGCUGAUGACACCU (tested as dual guide RNA, chemistry not given here) [CR003353]”, in data set [1], the “Avg % Deletion” value was 4.43%, the “Avg % Edit” value is on record as 53.73% and the “Avg % Insert” value worked out at 49.50%. In data set [2], the “Avg % Deletion” value is 2.63%, the “Avg % Edit” value was 84.83% and the “Avg % Insert” value came out at 82.23%. Also, the “# Sites” value in data set [3] is listed as 2.

“UUUGACCAUCAGAGGACACU (tested as dual guide RNA, chemistry not given here) [CR003344]”: in data set [1], the “Avg % Deletion” value is on record as 9.20%, the “Avg % Edit” value came to 31.50% and the “Avg % Insert” value is listed as 22.40%. For the same sequence, in data set [2], the “Avg % Deletion” value is on record as 6.10%, the “Avg % Edit” value stood at 39.40% and the “Avg % Insert” value is reported as 33.30%. The “# Sites” value in data set [3] came to 0.

Take “CCUCCUCUGCCUUGCUGGAC (tested as dual guide RNA, chemistry not given here) [CR003336]”: in data set [1], the “Avg % Deletion” value was 0.80%, the “Avg % Edit” value is 16.93% and the “Avg % Insert” value is listed as 16.20%. In data set [2], the “Avg % Deletion” value is recorded as 0.70%, the “Avg % Edit” value is recorded as 39.17% and the “Avg % Insert” value is reported as 38.43%. Moreover, the “# Sites” value in data set [3] was determined as 2.

As for “AGUGAGUCUGGAGAGCUGCA (tested as dual guide RNA, chemistry not given here) [CR003359]”, in data set [1], the “Avg % Deletion” value was found to be 7.33%, the “Avg % Edit” value is on record as 32.93% and the “Avg % Insert” value is on record as 25.67%. In data set [2], the “Avg % Deletion” value stood at 7.50%, the “Avg % Edit” value was 63.77% and the “Avg % Insert” value came out at 56.33%. Moreover, in data set [3], the “# Sites” value came to 6.

Consider “GCAGGGCGGCAAUGGUGUAG (tested as dual guide RNA, chemistry not given here) [CR003380]”, for which, in data set [1], the “Avg % Deletion” value is 0.47%, the “Avg % Edit” value is 2.93% and the “Avg % Insert” value is listed as 2.47%. Also, in data set [2], the “Avg % Deletion” value is on record as 0.10%, the “Avg % Edit” value came to 5.37% and the “Avg % Insert” value is recorded as 5.27%. For the same sequence, the “# Sites” value in data set [3] came out at 0.

On to “CUGCUCCUCCUCUGCCUUGC (tested as dual guide RNA, chemistry not given here) [CR003335]”, for which, in data set [1], the “Avg % Deletion” value is given as 3.40%, the “Avg % Edit” value is reported as 36.43% and the “Avg % Insert” value was 33.03%. Further, in data set [2], the “Avg % Deletion” value came out at 2.50%, the “Avg % Edit” value turned out to be 72.20% and the “Avg % Insert” value is 69.70%. In data set [3], the “# Sites” value came to 0.

“CAUUGAUGGCAGGACUGCCU (tested as dual guide RNA, chemistry not given here) [CR003347]”: in data set [1], the “Avg % Deletion” value worked out at 0.17%, the “Avg % Edit” value came out at 41.47% and the “Avg % Insert” value stood at 41.33%. In data set [2], the “Avg % Deletion” value is 0.43%, the “Avg % Edit” value is 82.30% and the “Avg % Insert” value was 81.97%. Moreover, the “# Sites” value in data set [3] worked out at 1.

In the case of “AGCCUUUCUGAACACAUGCA (tested as dual guide RNA, chemistry not given here) [CR003351]”, in data set [1], the “Avg % Deletion” value was found to be 16.37%, the “Avg % Edit” value was found to be 26.50% and the “Avg % Insert” value came to 10.20%. In data set [2], the “Avg % Deletion” value was found to be 20.97%, the “Avg % Edit” value came to 51.77% and the “Avg % Insert” value came out at 30.83%. Besides, the “# Sites” value in data set [3] was determined as 1.

As to “CUUCUCUACACCCAGGGCAC (tested as dual guide RNA, chemistry not given here) [CR003342]”, in data set [1], the “Avg % Deletion” value is given as 1.50%, the “Avg % Edit” value is listed as 22.10% and the “Avg % Insert” value is recorded as 20.60%. For the same sequence, in data set [2], the “Avg % Deletion” value stood at 0.90%, the “Avg % Edit” value came to 32.77% and the “Avg % Insert” value turned out to be 31.87%. The “# Sites” value in data set [3] is listed as 0.

Turning to “AAAGUUCUAGAUGCUGUCCG (tested as dual guide RNA, chemistry not given here) [CR003346]”, in data set [1], the “Avg % Deletion” value was determined as 14.33%, the “Avg % Edit” value is 19.97% and the “Avg % Insert” value turned out to be 5.63%. Further, in data set [2], the “Avg % Deletion” value was found to be 14.83%, the “Avg % Edit” value is 35.67% and the “Avg % Insert” value was 20.83%. Further, in data set [3], the “# Sites” value is 0.

On to “UUCUUUGGCAACUUACCCAG (tested as dual guide RNA, chemistry not given here) [CR003357]”, for which, in data set [1], the “Avg % Deletion” value is 0.63%, the “Avg % Edit” value amounted to 25.93% and the “Avg % Insert” value turned out to be 25.30%. In addition, in data set [2], the “Avg % Deletion” value came out at 0.77%, the “Avg % Edit” value worked out at 36.23% and the “Avg % Insert” value is on record as 35.47%. Besides, the “# Sites” value in data set [3] worked out at 3.

For the sequence “CCAGUCCAGCAAGGCAGAGG (tested as dual guide RNA, chemistry not given here) [CR003337]”, in data set [1], the “Avg % Deletion” value is listed as 1.23%, the “Avg % Edit” value stood at 19.30% and the “Avg % Insert” value amounted to 18.10%. For the same sequence, in data set [2], the “Avg % Deletion” value is 1.30%, the “Avg % Edit” value was 54.27% and the “Avg % Insert” value is 53.23%. Also, the “# Sites” value in data set [3] came to 10.

Regarding “GGAGUAGGGGCUCAGCAGGG (tested as dual guide RNA, chemistry not given here) [CR003382]”, in data set [1], the “Avg % Deletion” value turned out to be 0.00%, the “Avg % Edit” value turned out to be 0.97% and the “Avg % Insert” value is 0.97%. For the same sequence, in data set [2], the “Avg % Deletion” value is listed as 0.43%, the “Avg % Edit” value was 8.40% and the “Avg % Insert” value is 8.10%. Moreover, the “# Sites” value in data set [3] came out at 34.

With “CCCAGAGGCAAAUGGCUCCC (tested as dual guide RNA, chemistry not given here) [CR003355]”, in data set [1], the “Avg % Deletion” value was 1.63%, the “Avg % Edit” value worked out at 12.07% and the “Avg % Insert” value is recorded as 10.47%. For the same sequence, in data set [2], the “Avg % Deletion” value is 1.97%, the “Avg % Edit” value worked out at 12.53% and the “Avg % Insert” value worked out at 10.60%. For the same sequence, the “# Sites” value in data set [3] came to 1.

Consider “AUACCAGUCCAGCAAGGCAG (tested as dual guide RNA, chemistry not given here) [CR003338]”, for which, in data set [1], the “Avg % Deletion” value is 2.73%, the “Avg % Edit” value is listed as 36.30% and the “Avg % Insert” value was found to be 33.73%. For the same sequence, in data set [2], the “Avg % Deletion” value is 2.13%, the “Avg % Edit” value amounted to 83.03% and the “Avg % Insert” value is given as 80.87%. Also, the “# Sites” value in data set [3] worked out at 2.

Turning to “CCCCUACUCCUAUUCCACCA (tested as dual guide RNA, chemistry not given here) [CR003385]”, in data set [1], the “Avg % Deletion” value is reported as 3.60%, the “Avg % Edit” value turned out to be 36.77% and the “Avg % Insert” value amounted to 33.23%. Besides, in data set [2], the “Avg % Deletion” value is 2.53%, the “Avg % Edit” value is 40.87% and the “Avg % Insert” value was determined as 38.43%. Also, the “# Sites” value in data set [3] is listed as 3.

Turning to “UGUAGAAGGGAUAUACAAAG (tested as dual guide RNA, chemistry not given here) [CR003365]”, in data set [1], the “Avg % Deletion” value worked out at 6.67%, the “Avg % Edit” value turned out to be 26.90% and the “Avg % Insert” value is 20.23%. Moreover, in data set [2], the “Avg % Deletion” value is 6.83%, the “Avg % Edit” value was 42.37% and the “Avg % Insert” value stood at 35.57%. Further, the “# Sites” value in data set [3] is 3.
